One block for each compound: values may come before it.
Experiments:
[1] = Plasma pharmacokinetics after sciatic nerve block in rats; format: in vivo, rat; settings: for Tmax / AUC(0-inf) / AUC(0-t) / Cmax / Vd/F / half-life / CL/F: plasma
Source text: (§1) In brief, rats were anesthetized by inhaling 1%–2% isoflurane mixed with oxygen through an inhouse-made mask. Then, the rats were placed at right lateral position and inserted vertically using a 23-gauge injector at the middle of the line from the greater trochanter to ischial tuberosity ([Binshtok et al., 2007]; [Zhang et al., 2017b]).
According to the China Food and Drug Administration guidance for preclinical pharmacokinetic study, there should be more than three sampling points adjacent to the time to reach the maximum concentration. […] Thus, to obtain an accurate value of the maximum concentration of Levo-Bupi, we added another time point at 0.33 h. […] Blood samples were maintained in heparinized polypropylene tube separately and then centrifuged at 877 × g for 10 min to gain plasma within 1 h. All the samples were kept at -80°C.
(§2) According to previous study ([Zhang et al., 2017a]), plasma samples were deproteinized by acetonitrile solution with ropivacaine hydrochloride (internal standard, IS). The mixture was centrifuged for 10 min at 28,621 × g in 4°C after fully vortexed. The supernatant was diluted with ultrapure water (50:50, v/v). Muscle and sciatic nerve samples were homogenized by gentleMACS™ Dissociator (Miltenyi Biotec, Germany) and tissue grinder (model SCIENTZ-48, Ningbo, China), respectively. Tissue homogenate was mixed with IS solution by vortex and then centrifuged for 10 min at 28,621 × g. Then, the supernatant was diluted with ultrapure water at equal volume ratio. LC-MS/MS analysis system consist of Agilent 6460 triple quadrupole mass spectrometer and electrospray ionization source (Agilent Technologies, CA, USA). Chromatographic separation was adopted by Agilent Extend C18 column (100 mm × 3 mm, 3.5 μm) at 35°C with isocratic elution containing 0.05% formic acid and acetonitrile at the volume ratio of 78:22 at a flow rate of 0.3 ml/min. Mass spectrometry conditions were in a positive ionization mode: the sheath gas flow rate, 11.0 L/min; sheath gas heater temperature, 300°C; nebulizer pressure, 45 psi; capillary voltage, 3,500 V. MassHunter software was used to analyze data (B.04.00 Build 4.0.479.0, Agilent Technologies, USA).
(§3) The parameters of pharmacokinetics were analyzed by DAS® (Drug and Statistics, version 3.2.1, China) using noncompartmental model. In this study, the following pharmacokinetic parameters were calculated: the value of maximum concentration (Cmax) and the time to acquire (Tmax); the elimination half-life (t1/2); area under curve (AUC) from zero to the last time point (AUC0–last) and from zero to infinity (AUC0–∞); clearance (CL/F), and volume of distribution (Vd/F).

[2] = Drug concentration and pharmacokinetics in muscle near the injection site after sciatic nerve block in rats; format: in vivo, rat
Description: as §1, with “2017b]). Once the bone has been contacted, 200 μl drug was injected.” for “2017b]).”
(§4) On the basis of previous pharmacodynamic studies, nine sampling points were used for determining drug concentration in muscle and sciatic nerve for QX-OH and LL-1: 0.5, 1, 2, 3, 4, 5, 6, 7, and 8 h; four sampling points for Levo-Bupi: 0.5, 1, 2, and 3 h. Due to the destructive sampling, five male rats were sacrificed at each time point for collecting muscle and sciatic nerve nearby the injection site. Then all samples were weighed and frozen at -80°C.
as §2, §3

[3] = Drug concentration and pharmacokinetics in sciatic nerve after sciatic nerve block in rats; format: in vivo, rat
Description: as §1, with “2017b]). Once the bone has been contacted, 200 μl drug was injected.” for “2017b]).”
as §4, §2, §3

[4] = test system: frog sciatic nerve fibers; test: Compound action potentials (CAPs) from frog sciatic nerve fibers; settings: LL-1, 35 mM QX-OH, 10 mM Levo-Bupi
Source text: According to previous published researches ([Matsushita et al., 2013]; [Ohtsubo et al., 2015]). Nine of frogs were decapitated and then pithed. Then, the sciatic nerve was dissected from the lumbar plexus to the knee. The two ends of isolated sciatic nerves were carefully tied to the wires by threads and placed in Ringer solution (NaCl, 115.5 mmol/L; KCl, 2.0 mmol/L; CaCl2, 1.8 mmol/L; Na2HPO4, 1.3 mmol/L and NaH2PO4, 0.7 mmol/L; pH = 7.4).
The compound action potentials (CAPs) from frog sciatic nerve fibers was recorded by the biological function experiment system (BL-420F, Chengdu Techman Software, China). All practices were carried out at room temperature. The sciatic nerve was loosely placed in three platinum wires and then CAPs were recorded in air using a preamplifier. In this system, two of the platinum wires were used to record CAPs, and the other one was for stimulation. The parameters of stimulation were set as follows: intensity, 3 V; frequency, 1 Hz; rectangular pulses, 0.1 ms. The procedure should be performed quickly in order to avoid the nerve dry. The time of measurement should be less than 2 min. […] In this study, we compared the amplitude of CAPs after using drugs with baseline to present the degree of inhibition from frog sciatic nerve, and which was analyzed using the following equation: CAPs amplitude (%) = CAPs measurement/CAPs baseline × 100%.

HT22 cells = test: Cellular drug uptake assay; format: cell-based, mouse; settings: LL-1 vs 10 mM Levo-Bupi alone, 10 min incubation, n = 10, p = 0.067
Description: HT22 cell line, a sub-line derived from HT4 cells that were originally immortalized from primary mouse hippocampal neuron, were a generous gift from Dr. Huang (West China Second University Hospital, Sichuan University, China). HT22 cells were cultured in DMEM with high glucose (HyClone, Utah, USA) supplemented with 10% fetal bovine serum (Gibco, New York, USA) and 1% penicillin and streptomycin (HyClone, Utah, USA) in a humidified incubator with 5% CO2 and 95% air at 37°C.
According to previous study ([Brenneis et al., 2014]), cells were plated on 35 mm 6-well dishes (2.5 × 10^5 per well). When cells reached confluence at 70%–80%, the medium was removed, and plates washed with PBS (NaCl, 137.0 mmol/L; KCl, 2.7 mmol/L; KH2PO4, 1.5 mmol/L and Na2HPO4·12H2O, 8.0 mmol/L; pH = 7.4). Thirty wells were divided to incubate with LL-1, 35 mM QX-OH and 10 mM Levo-Bupi for 10 min, and then washed four times with PBS. Cells were translated to polypropylene tube. The cell suspensions were centrifuged at 72 × g and the supernatants were removed by pipette. All samples were frozen at -80°C before testing. Samples were homogenized with 100 µL of saline using a tissue grinder. After mixing 50 μl homogenate, 50 μl acetonitrile, and 10 μl IS, then the mixture was centrifuged for 10 min at 28,621 × g, and the supernatant was injected for analysis.

[5] = design: method as in Corvetto et al., 2012; settings: transversus abdominis plane block; ref Corvetto et al., 2012; cited from earlier work
RAW, N1E and CHO cells = settings: cited from earlier work
[6] = design: method as in Yu et al., 2002; settings: subcutaneous administration; ref Yu et al., 2002; cited from earlier work
[7] = both sexes, rat, 200 μl, Levobupivacaine alone (single drug), sciatic nerve block, mean ± SEM
[8] = both sexes, rat, given as LL-1, sciatic nerve block, n = 10, mean ± SEM
[9] = male, rat, muscle near the injection site, muscle, given as LL-1, sciatic nerve block, n = 5 per time point, mean ± SEM
[10] = muscle, given as LL-1, sciatic nerve block, n = 5 per time point, mean ± SEM
[11] = male, rat, sciatic nerve, given as LL-1, sciatic nerve block, n = 5 per time point, mean ± SEM
[12] = sciatic nerve, given as LL-1, sciatic nerve block, n = 5 per time point, mean ± SEM

change of Tmax in plasma in combination with QX-OH vs alone ([1]; LL-1 vs Levo-Bupi alone, sciatic nerve block): increased by four times
Tmax ([1]; Sprague-Dawley, 200 μl, Levo-Bupi as a single drug, rat sciatic nerve block, preliminary experiment, read-out: time to maximum concentration): 0.5 h
AUC(0-inf) [1, 7]: 0.509 ± 0.0315 µg·h/mL
AUC(0-t) [1, 7]: 0.471 ± 0.0233 µg·h/mL
Cmax [1, 7]: 0.142 ± 0.013 µg/mL
Vd/F [1, 7]: 4.81 ± 0.5 L
half-life [1, 7]: 2.61 ± 0.31 h
Tmax ([1]; both sexes, rat, 200 μl, Levobupivacaine alone (single drug), sciatic nerve block, mean ± SEM, read-out: Tmax): 1.07 ± 0.16 h
Cmax ([1]; both sexes, rat, given as LL-1 (35 mM QX-OH/10 mM Levo-Bupi), 200 μl, sciatic nerve block, n = 10, mean ± SEM): 0.114 ± 0.0102 µg/mL
AUC(0-inf) [1, 8]: 0.819 ± 0.0788 µg·h/mL
AUC(0-t) [1, 8]: 0.651 ± 0.0474 µg·h/mL
Vd/F [1, 8]: 3.81 ± 0.7 L
half-life [1, 8]: 4.89 ± 1.77 h
Tmax ([1]; both sexes, rat, given as LL-1, sciatic nerve block, n = 10, mean ± SEM, read-out: Tmax): 4.11 ± 0.39 h
CL/F ([1]; Levobupivacaine alone (single drug), sciatic nerve block, mean ± SEM): 1.32 ± 0.08 L/h
CL/F ([1]; given as LL-1, sciatic nerve block, n = 10, mean ± SEM): 0.78 ± 0.10 L/h
Tmax ([1]; rat, Levo-Bupi in combination with QX-314 (35 mM/10 mM), sciatic nerve block, n = 10, read-out: Tmax): 4 h
increase of concentration in muscle, LL-1 vs single drug ([2]; at the same time points): 2 to 15 times
Tmax ([2]; male, rat, muscle near the injection site, muscle, given as LL-1, sciatic nerve block, n = 5 per time point): 0.5 h
Cmax [2, 9]: 256000 ± 28500 ng/g
Vd/F [2, 9]: 3.01 ± 1.21 L
half-life [2, 9]: 1.38 ± 0.6 h
AUC0–t [2, 10]: 417.58 ± 43.46 µg·h/g
AUC0–∞ [2, 10]: 417.86 ± 43.49 µg·h/g
CL/F [2, 10]: 1.59 ± 0.17 L/h
increase of concentration in sciatic nerve, LL-1 vs single drug ([3]; at the same time points): 1.5 to 24 times
Tmax ([3]; male, rat, sciatic nerve, given as LL-1, sciatic nerve block, n = 5 per time point): 0.5 h
Cmax [3, 11]: 430000 ± 48600 ng/g
Vd/F [3, 11]: 1.23 ± 0.8 L
half-life [3, 11]: 1.28 ± 0.74 h
AUC0–t [3, 12]: 935.82 ± 74.35 µg·h/g
AUC0–∞ [3, 12]: 935.88 ± 74.39 µg·h/g
CL/F [3, 12]: 0.70 ± 0.05 L/h
cellular uptake of Levo-Bupi (HT22 cells): had no difference
SMILES: CCCCN1CCCC[C@H]1C(=O)Nc1c(C)cccc1C [Levobupivacaine, levobupivacaine]
soak time required to block CAPs ([4]; n = 6, mean ± SEM): 14.17 ± 2.01 min
CAPs amplitude (% of baseline) ([4]; within the first 5 min of soaking): 34%
change of Tmax on combining with epinephrine [5]: doubled

SMILES: CC[N+](CC)(CC)CC(=O)Nc1c(C)cccc1C.[Br-] [QX-314]
cellular uptake of QX-314 in presence of bupivacaine (RAW, N1E and CHO cells): enhanced the cellular uptake

SMILES: CCCCN1CCCCC1C(=O)Nc1c(C)cccc1C (stereo not drawn) [bupivacaine]
time at which Cmax was reached [6]: 0.5 h
